Our source for the IC50 values is patent US11046691B1 (IDEAYA BIOSCIENCES, INC., priority 2018, dated 2021).

The structures appear in SMILES notation.

Sequence of hMAT2A (P31153 whole entry): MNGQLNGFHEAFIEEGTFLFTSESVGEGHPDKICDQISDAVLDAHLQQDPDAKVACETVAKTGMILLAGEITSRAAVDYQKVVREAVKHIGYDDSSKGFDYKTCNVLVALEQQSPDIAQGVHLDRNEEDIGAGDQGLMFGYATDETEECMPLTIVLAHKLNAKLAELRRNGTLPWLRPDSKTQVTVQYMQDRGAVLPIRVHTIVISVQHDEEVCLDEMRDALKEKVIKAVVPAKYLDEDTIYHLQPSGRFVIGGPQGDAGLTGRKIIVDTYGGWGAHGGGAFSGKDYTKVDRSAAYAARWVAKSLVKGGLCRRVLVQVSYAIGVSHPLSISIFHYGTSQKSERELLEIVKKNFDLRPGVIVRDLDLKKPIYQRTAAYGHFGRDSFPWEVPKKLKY

The first test has as its target hMAT2A (Homo sapiens (Human), UniProt P31153). Nature of the test: Phosphate Sensor Fluorescence Assay (MAT2A enzyme inhibition). The conditions noted are these: L-methionine 500 uM, ATP 500 uM, class symbols. In kind it is biochemical. The protocol:
The ability of the compound of present disclosure to inhibit MAT2A enzyme was determined using the Malachite Green or Phosphate Sensor Fluorescence Assay described below.
B. Phosphate Sensor Fluorescence Assay
MAT2A enzyme is incubated with a test compound in DMSO or DMSO and its substrates (L-methionine and ATP) in a microtiter plate. The enzymatic reaction is stopped by the addition of Working Phosphate Sensor Mixture. The plate is analyzed for fluorescence at 450 nm.
Assay Buffer: 50 mM Tris, pH 7.5/50 mM KCl/10 mM MgCl2/0.01% Brij-35/1 mM DTT/0.1% BGG/40 nM PNP/6 uM 7-MEG
L-methionine: 500 uM before the addition of Working Phosphate Sensor Mixture
ATP: 500 uM before the addition of Working Phosphate Sensor Mixture
Test compounds or DMSO were added to the appropriate well suing D300e digital dispenser. 5 μl/well of Assay Buffer was added to the wells corresponding to the negative control and 5 μl/well of MAT2A was added to all the wells except for those corresponding to the negative control. After incubating the plate at room temperature for 15 minutes, 5 μl/well of the 1 mM L-methionine/1 mM ATP mixture was added to all wells. The plate was centrifuged at 1000 rpm for 1 minute and then incubated at room temperature for 1 hour. 5 μl of the Working Phosphate Sensor Mixture was added to all wells and the plate was centrifuged at 1000 rpm for 1 minute. The plate was read for fluorescence at 450 nm after exciting at 430 nm.
Percent inhibition was calculated in Chemical and Biological Information System (CBIS), (ChemInnovation Software Inc.). Curves were fitted by CBIS as % inhibition vs. log [compound concentration] using a 4-parameter inhibition model. Fit=(A+((B−A)/(1+((C/x)^D)))) Res=(y−fit)
`O=c1nc(N2CC(O)C2)c2ccc(C(F)(F)F)nc2n1-c1ccccc1` [Example 171, 4-(3-hydroxyazetidin-1-yl)-1-phenyl-7-(trifluoromethyl)pyrido[2,3-d]pyrimidin-2(1H)-one]: the IC50 is under 200 nM. `CNc1nc(=O)n(-c2cccc(C(F)(F)F)c2)c2cc(Cl)ccc12` [Example 86, 7-chloro-4-(methylamino)-1-[3-(trifluoromethyl)phenyl]hydroquina-zolin-2-one] gave an IC50 of 200 to 500 nM. Same read-out and setting: for `[2H]C([2H])([2H])Nc1nc(=O)n(-c2ccccc2Cl)c2nc(C(F)(F)F)ccc12` [Example 379, 1-(2-chlorophenyl)-4-((methyl-d3)-amino)-7-(trifluoromethyl)pyrido[2,3-d]pyrimidin-2(1H)-one] the value was under 200 nM. On the same count and under the same terms, to `O=c1nc(NCCCO)c2ccc(C(F)(F)F)nc2n1-c1ccccc1Cl` [Example 247, 1-(2-chlorophenyl)-4-[(3-hydroxy-propyl)amino]-7-(trifluoromethyl)-pyrido[2,3-d]pyrimidin-2(1H)-one] belongs under 200 nM; to `N#C[C@H]1C[C@@H](Nc2nc(=O)n(-c3ccccc3Cl)c3nc(C(F)(F)F)ccc23)C1` [Example 318, (1s,3s)-3-((1-(2-chlorophenyl)-2-oxo-7-(trifluoromethyl)-1,2-dihydropyrido[2,3-d]pyrimidin-4-yl)amino)cyclobutane-1-carbonitrile], under 200 nM; to `O=c1nc(NCC(F)(F)F)c2ccc(C(F)(F)F)nc2n1-c1ccccc1` [Example 136, 1-phenyl-4-((2,2,2-trifluoroethyl)amino)-7-(trifluoromethyl)pyrido[2,3-d]-pyrimidin-2(1H)-one], under 200 nM.

`CO[C@H]1CCN(c2nc(=O)n(-c3ccccc3)c3cc(Cl)ccc23)C1` [Example 196, (S)-7-chloro-4-(3-methoxypyrrolidin-1-yl)-1-phenylquinazolin-2(1H)-one]: the IC50 was under 200 nM. On the same count and under the same terms, for `O=c1nc(N2CC[C@@H](O)C2)c2ccc(Cl)cc2n1-c1ccccc1Cl` (atropisomer, axis not shown) [Example 135, 4-((3R)-3-hydroxypyrrolidin-1-yl)-7-chloro-1-(2-chlorophenyl)hydro-quinazolin-2-one] the value was under 200 nM. Same read-out and setting: for `COc1nc(=O)n(-c2ccccc2)c2nc(C)ccc12` [Example 396, 4-methoxy-7-methyl-1-phenylpyrido-[2,3-d]pyrimidin-2(1H)-one] the value was 200 to 500 nM. Compound `CNc1nc(=O)n(-c2nccc(OC)n2)c2cc(Cl)ccc12` [Example 106, 7-chloro-1-(4-methoxypyrimidin-2-yl)-4-(methylamino)hydroquinazolin-2-one] gave an IC50 of 1000 to 10000 nM. Still for that read-out and setting: to `O=c1nc(NC2CC3(C2)CS(=O)(=O)C3)c2ccc(C(F)(F)F)nc2n1-c1ccccc1Cl` [Example 316, 1-(2-chlorophenyl)-4-((2,2-dioxido-2-thiaspiro[3.3]heptan-6-yl)amino)-7-(trifluoromethyl)pyrido[2,3-d]pyrimidin-2(1H)-one] belongs 200 to 500 nM. In the case of `O=c1[nH]c(=O)n(-c2cnccc2Cl)c2nc(C(F)(F)F)ccc12` [Example 358, 1-(4-chloropyridin-3-yl)-7-(trifluoro-methyl)pyrido[2,3-d]pyrimidine-2,4(1H,3H)-dione], the IC50 was under 200 nM.

With `[2H]C([2H])([2H])N(c1nc(=O)n(-c2ccccc2Cl)c2nc(C(F)(F)F)ccc12)C([2H])([2H])[2H]` [Example 339, 4-(bis(methyl-d3)amino)-1-(2-chloro-phenyl)-7-(trifluoromethyl)-pyrido[2,3-d]pyrimidin-2(1H)-one], the IC50 was under 200 nM.

For the compound `CNc1nc(=O)n(-c2ccccc2Cl)c2cc(C3CC3)ccc12` [Example 426, 1-(2-chlorophenyl)-7-cyclopropyl-4-(methylamino)quinazolin-2(1H)-one], the IC50 is under 200 nM. On the same count and under the same terms, to `CCc1ccc2c(NC)nc(=O)n(-c3ccccc3)c2c1` [Example 115, 7-ethyl-4-(methylamino)-1-phenylhydro-quinazolin-2-one] belongs under 200 nM; to `O=c1nc(NCC(F)(F)F)c2ccc(C(F)(F)F)cc2n1-c1ncccn1` [Example 121], 200 to 500 nM. Still for that read-out and setting: to `N#Cc1cccc(-n2c(=O)nc(N3CC[C@@H](O)C3)c3ccc(C(F)(F)F)cc32)c1` [Example 141] belongs under 200 nM. Still for that read-out and setting: for `C[C@@H]1CCCN1c1nc(=O)n(-c2ccccc2)c2nc(C(F)(F)F)ccc12` [Example 344, 4-((2R)-2-methylpyrrolidin-1-yl)-1-phenyl-7-(trifluoromethyl)pyrido[2,3-d]-pyrimidin-2(1H)-one] the value was under 200 nM; for `CN(C)c1nc(=O)n(-c2cccc(NS(=O)(=O)C3(C)CC3)c2)c2cc(Cl)ccc12` [Example 211], 500 to 1000 nM.

`O=c1[nH]c(=O)n(-c2cccc3ncsc23)c2nc(C(F)(F)F)ccc12` [Example 363, 1-benzothiazol-7-yl-7-(trifluoromethyl)-pyrido[2,3-d]pyrimidine-2,4(1H,3H)-dione] had an IC50 of under 200 nM.

For `CNc1nc(=O)n(-c2ccncc2)c2nc(C(F)(F)F)ccc12` [Example 313], the IC50 was 500 to 1000 nM. In turn, `O=c1nc(N2CC[C@H]2CO)c2ccc(Cl)cc2n1-c1ccccc1` [Example 172, (S)-7-chloro-4-(2-(hydroxymethyl)-azetidin-1-yl)-1-phenylquinazolin-2(1H)-one] registered an IC50 of under 200 nM. Same read-out and setting: to `CNc1nc(=O)n(-c2ccccc2)c2cc(Cl)cc(OCC3CC3)c12` [Example 348, 7-chloro-5-(cyclopropylmethoxy)-4-(methylamino)-1-phenylhydro-quinazolin-2-one] belongs under 200 nM; to `CNc1nc(=O)n(-c2ccccc2C)c2nc(C(F)(F)F)ccc12` [Example 180, 4-(methylamino)-1-(2-methylphenyl)-7-(trifluoromethyl)pyrido[2,3-d]pyrimidin-2(1H)-one], under 200 nM.

The test is the same for the next values; noted with them: L-methionine 500 uM, ATP 500 uM, numeric bound.
Compound `CN(Cc1ccccn1)c1nc(=O)n(-c2ccccc2)c2cc(Cl)ccc12` [Example 236, 7-chloro-4-[methyl(pyridin-2-ylmethyl)-amino]-1-phenylhydroquinazolin-2-one] returned an IC50 of over 10000 nM. For the compound `Nc1nc(=O)n(-c2ccc3nccn3c2)c2cc(Cl)ccc12` [Example 252, 4-amino-7-chloro-1-(4-hydroimidazo-[1,2-a]pyridin-6-yl)hydroquinazolin-2-one], the IC50 is over 10000 nM.

Turning to `Nc1nc(=O)n(-c2ccccc2)c2cc(Cl)cc(-n3nccn3)c12` [Example 112, 4-amino-7-chloro-1-phenyl-5-(1,2,3-triazol-2-yl)hydroquinazolin-2-one], the IC50 was over 10000 nM. On the same count and under the same terms, to `CN(C)c1nc(=O)n(-c2ccccc2)c2cc(-c3cscn3)ccc12` [Example 228, 4-(dimethylamino)-1-phenyl-7-(1,3-thiazol-4-yl)hydroquinazolin-2-one] belongs over 10000 nM. Still for that read-out and setting: for `CC(C)c1nc(=O)n(-c2ccccc2)c2cc(Cl)ccc12` [Example 104, 7-chloro-4-(methylethyl)-1-phenylhydro-quinazolin-2-one] the value was over 10000 nM; for `CNc1nc(=O)n(-c2ccccc2)c2cc(Cl)cc(OC3CN(C(=O)OC(C)(C)C)C3)c12` [Example 132, tert-butyl 3-[7-chloro-4-(methylamino)-2-oxo-1-phenylhydroquinazolin-5-yl-oxy]azetidinecarboxylate], over 10000 nM.

As a reminder, the IC50 is the concentration needed to halve the response being measured. Higher therefore signals a need for much substance.
